From ChEMBL document CHEMBL1124350, “Retinobenzoic acids. 4. Conformation of aromatic amides with retinoidal activity. Importance of trans-amide structure for the activity” (1989) come the findings set out here.

For assay [1], the system named is HL-60. Briefly: Relative activity expressed as mean of ratio of effective dose of retinoic acid against HL-60 cell versus the compound. In kind it is functional, Homo sapiens.
The test system of assay [2] is HL-60. Briefly: Compound was tested for differentiation-inducing activity against human promyelocytic leukemia cell line HL-60. The format is functional. The conditions noted are these: read-out: ED50 (the source's name).

pEC50: −log10 of the molar value.

Turning to `CC1(C)CCC(C)(C)c2cc3c(cc21)CN(c1ccc(C(=O)O)cc1)C3=O`, the Relative activity with HL-60 [1] was 0.33. In addition, the pEC50 in the assay on HL-60 [2] is 6.29.
For `CC1(C)CCC(C)(C)c2cc3c(ccn3C(=O)c3ccc(C(=O)O)cc3)cc21`, the Relative activity in the assay with HL-60 [1] turned out to be 2.6. Moreover, the pEC50 in the assay on HL-60 [2] is 7.19.
Taken in the same sequence, the figures for `CC1(C)CCC(C)(C)c2cc3c(cc21)CCN3C(=O)c1ccc(C(=O)O)cc1` were 1.1 and 6.82.
Taken in the same sequence, the figures for `CN(C(=O)c1ccc(C(=O)O)cc1)c1ccc2c(c1)C(C)(C)CCC2(C)C` were below 0.01 and below 6.00.
`CC1(C)CCC(C)(C)c2cc(C(=O)Nc3ccc(C(=O)O)cc3)ccc21`: the Relative activity in the assay with HL-60 [1] is 720. Moreover, in the assay on HL-60 [2], the pEC50 was 9.47.
Take `CN(C(=O)c1ccc2c(c1)C(C)(C)CCC2(C)C)c1ccc(C(=O)O)cc1`: the Relative activity in the assay on HL-60 [1] was below 0.01. For the same compound, the pEC50 in the assay on HL-60 [2] is below 6.00.
Consider `CC1(C)CCC(C)(C)c2cc(NC(=O)c3ccc(C(=O)O)cc3)ccc21` [TAMIBAROTENE], for which, in the assay on HL-60 [1], the Relative activity is 350. The pEC50 in the assay on HL-60 [2] is 9.10.
Regarding `CC1=C(/C=C/C(C)=C/C=C/C(C)=C/C(=O)O)C(C)(C)CCC1` [TRETINOIN], the Relative activity in the assay on HL-60 [1] was determined as 100. Also, the pEC50 in the assay on HL-60 [2] is 8.62.
